US20250387348A1, “NEPHROPROTECTIVE USEFUL AGENT” (WATANABE OYSTER LABORATORY, CO., LTD., priority 2022, published 2025)

Legend:
[1] = system: PPARα/PGC1α/NRF1/TFAM pathway genes in HK-2 cells; assay: qPCR expression of mitochondrial biosynthesis-related genes; type: cell-based, human; conditions: co-treatment with 100 μM BSO, DHMBA 250 μM and 500 μM
Protocol: It has been reported that mitochondrial biosynthesis is regulated through activation of the PPARα/PGC1α/NRF1/TFAM pathway (Uittenbogaard M and Chiaramello A, Current pharmaceutical design, 20:[…], 2014).
The expression levels of genes related to mitochondrial biosynthesis were measured in a similar manner to that described above. A comparison was performed with the control group as 1. The figure was expressed as a mean value±SD (n=3 for each group). Each expression level was corrected by the expression level of β-actin.

[2] = system: human renal proximal tubular cells HK-2; assay: CCK-8 cell viability test under BSO oxidative stress; type: cell-based; conditions: 48 hours
Protocol: (§1) Human renal proximal tubular cells (HK-2) were subcultured using Dulbecco's Modified Eagle's Medium (DMEM, NACALAI TESQUE, INC.) containing 10% fetal bovine serum and 1% penicillin-streptmycin in a 5% CO2 incubator at 37° C.
(§2) In order to confirm the cytoprotective action of DHMBA on human renal proximal tubular cells HK-2 against oxidative stress, an oxidative stress inducer buthionine sulfoximine (BSO) was used to assess the toxicity and viability of the cells.
(§3) Specifically, the HK-2 cells were seeded into a 96-well plate to be 3.0×10^3 cells/well and cultured for 24 hours.
(§4) Next, BSO and DHMBA were added in an amount of 150 μL/well to have a final concentration of BSO of 100 μM and a final concentration of DHMBA of 1 μM to 500 μM. […] After the plate was allowed to stand for 30 minutes at room temperature, the absorbance at 490 nm was measured using a plate reader (Wallac 1420 ARVO Mx plate reader, PerkinElmer) to measure the cytotoxicity. In addition, a CCK-8 reagent (DOJINDO LABORATORIES) was added in an amount of 10 μL/well to the plate where the cells had been cultured, and after two hours of culture at 37° C., the absorbance at 450 nm was measured using a plate reader (Wallac 1420 ARVO Mx plate reader) to assess the viability of the cells. The toxicity and viability of the cells were calculated from the absorbance value relative to the control (0 μg/mL) (n=5 to 6 for each group).

[3] = system: human renal proximal tubular cells HK-2; assay: LDH cytotoxicity test under BSO oxidative stress; type: cell-based; conditions: 48 hours
Protocol: as §1, §2, §3, §4

Keap1-Nrf2 pathway = conditions: cited from earlier work
[4] = system: mitochondria of HK-2 cells; assay: Mitochondrial respiration capacity (oxygen consumption rate, extracellular flux analyzer XFp); type: cell-based, human
Protocol: The action of DHMBA improving mitochondrial respiration capacity under oxidative stress was examined using an extracellular flux analyzer XFp (Agilent Technologies).
The HK-2 cells were seeded into the XFp Cell Culture Miniplate (Agilent Technologies) to be 1.5×10^4 cells/well and cultured for 24 hours. Next, BSO and DHMBA were added in an amount of 200 μL/well to have a final concentration of BSO of 100 μM and a final concentration of DHMBA of 250 μM and 500 μM. After 24 hours of culture, the culture medium was replaced with a running culture medium (XF DMEM Medium, pH 7.4, Agilent Technologies) containing 20 mM GlutaMAX (Gibco), 10 mM Pyruvate (Gibco), and glucose (10 mM), and the cells were cultured for one hour in an incubator at 37° C. without CO2 control. A 24-hour hydrated calibration plate was placed on an extracellular flux analyzer XFp and calibrated. After the calibration was completed, the calibration plate and the cell plate were exchanged, and the oxygen consumption rate (OCR) was measured. The basal respiration rate was measured first, and subsequently, oligomycin (final concentration: 2 μM) was added to inhibit ATP production. Next, FCCP (final concentration: 1 μM) was added, and the maximal respiration rate was measured. Finally, rotenon/antimycin A (final concentration: 0.25 μM) was added, and the respiration rate independent of mitochondria was measured. Each measurement was performed three times for all measurements.

[5] = system: intramitochondrial ROS in HK-2 cells; assay: Intramitochondrial ROS production level (DHR123 staining); type: cell-based, human; conditions: 24 hours
Protocol: In order to verify the effect of DHMBA on the production of intramitochondrial ROS promoted by oxidative stress stimulation, the observation and measurement of fluorescence intensity of intramitochondrial ROS were performed using DHR123.
The HK-2 cells were seeded into a black 24-well plate to be 2.0×10^4 cells/well and cultured for 24 hours. Next, BSO and DHMBA were added in an amount of 500 μL/well to have a final concentration of BSO of 100 μM and a final concentration of DHMBA of 250 μM and 500 μM. After 24 hours, a supernatant was removed, a DHR123 reagent (FUJIFILM Wako Pure Chemical Corporation) diluted to 5 μM with serum-free DMEM was added in an amount of 250 μL/well, and the cells were cultured at 37° C. for 40 minutes.
Furthermore, after the cells were washed with PBS, 500 μL of PBS was added, observation was performed, and photos were taken using a fluorescence microscope BZ-9000 (Keyence). Then, after the cells were peeled from the bottom with a scraper and pipetted sufficiently, an amount of 200 μL/well was moved to a black 96-well plate, and fluorescence was measured using a plate reader (Wallac 1420 ARVO Mx plate reader) at an excitation wavelength of 505 nm and a fluorescence wavelength of 534 nm (n=6 for each group).

[6] = system: intracellular ROS in HK-2 cells; assay: Intracellular ROS production level (DCFDA staining); type: cell-based, human; conditions: 24 hours
Protocol: The production level of intracellular ROS was measured to assess changes in intracellular ROS by DHMBA under oxidative stress stimulation.
The HK-2 cells were seeded into a black 96-well plate to be 3.0×10^3 cells/well and cultured for 24 hours. Next, BSO and DHMBA were added in an amount of 100 μL/well to have a final concentration of BSO of 100 μM and a final concentration of DHMBA of 250 μM and 500 μM. After 24 hours, a supernatant was removed, a DCFDA reagent (Sigma) diluted to 25 μM with serum-free DMEM was added in an amount of 100 μL/well, and the cells were cultured at 37° C. for 40 minutes. Furthermore, after the cells were washed with PBS, PBS was added in an amount of 100 μL/well, and fluorescence was measured using a plate reader (Wallac 1420 ARVO Mx plate reader) at an excitation wavelength of 485 nm and a fluorescence wavelength of 535 nm (n=6 for each group) and observed and photographed with a fluorescence microscope BZ-9000 (Keyence).

[7] = system: BIK and ENDOG genes in HK-2 cells; assay: qPCR expression of cell and mitochondrial damage-related genes; type: cell-based, human; conditions: 24 hours
Excerpt: Under oxidative stress stimulation, ENDOG that resides in a mitochondrion migrates to the nucleus and acts on nuclear DNA fragmentation. In addition, when nuclear DNA is damaged, BIK increases and acts with intramitochondrial factors, inducing apoptosis, a type of cell death (Li L Y, et al., Nature, 412:95-99, 2001; Kutuk O, et al., PLOS One, 12: e0182809, 2017).
Therefore, in the present invention, the effect of DHMBA on cell death markers BIK and ENDOG, which increase under oxidative stress stimulation, was verified.
The HK-2 cells were seeded into a 6-well plate to be 5.0×10^4 cells/well and cultured for 24 hours. Next, BSO and DHMBA were added in an amount of 2 mL/well to have a final concentration of BSO of 100 μM and a final concentration of DHMBA of 250 μM and 500 μM. After 24 hours, total RNA extraction was recovered using a NucleoSpin (registered trademark) RNA kit (MACHEREY-NAGEL). The concentration of purified RNA was quantified by the Nanodrop (Invitrogen). From 1.0 μg of total RNA, cDNA was synthesized according to the protocol of ReverTra ACE (registered trademark) qPCR RT Master Mix with gDNA Remover (TOYOBO). The gene expression levels were measured according to the protocol of THUNDERBIRD (registered trademark) SYBR (registered trademark) qPCR Mix (TOYOBO). The measurement was performed using the CFX Connect™ Real-Time PCR Detection System (BioRad), and analysis was performed by the 2^−(ΔΔCT) method.
A comparison was performed with the gene expression level of the control group as 1. The figure was expressed as a mean value±SD (n=4 for each group). Each expression level was corrected by the expression level of β-actin, which is a housekeeping gene.

[8] = system: OPA1, DRP1 and FIS1 genes in HK-2 cells; assay: qPCR expression of mitochondrial fusion- and fission-related genes; type: cell-based, human; conditions: co-treatment with 100 μM BSO, DHMBA 250 μM and 500 μM
Protocol: The expression levels of genes related to mitochondrial fusion (OPA1) and genes related to fission (DRP1 and FIS1) were measured in a similar manner to that described above. A comparison was performed with the control group as 1. The figure was expressed as a mean value±SD (n=4 for each group). Each expression level was corrected by the expression level of β-actin.

[9] = system: mitochondria of HK-2 cells; assay: Mitochondrial morphology observation (MitoTracker Green FM / Hoechst 33342); type: cell-based, human; conditions: 24 hours
Protocol: Excessively produced ROS induces mitochondrial fission, causing mitochondrial fragmentation and dysfunction (Zorov D, et al., Cells, 8:175, 2019). In order to observe whether or not DHMBA influences mitochondrial morphological changes under oxidative stress stimulation, double staining of mitochondria and nuclei was performed using MitoTracker (registered trademark) Green FM (Thermo Fisher Scientific), which reacts to mitochondrial membrane potential differences, and Hoechst 33342 (DOJINDO LABORATORIES), which binds to nuclear DNA.
The HK-2 cells were seeded into 35 mm dishes to be 5.0×10^4 cells/dish and cultured for 24 hours. Next, BSO and DHMBA were added in an amount of 2 mL/well to have a final concentration of BSO of 100 μM and a final concentration of DHMBA of 250 μM and 500 μM. After 24 hours, a mixed solution of 0.1 μM MitoTracker (registered trademark) Green FM and 5 μg/mL Hoechst 33342 was added in an amount of 2 mL/dish, and the cells were cultured at 37° C. for 20 minutes and washed with PBS. Afterwards, 1 mL of PBS was added, and fluorescence images were obtained at 100 times using a fluorescence microscope BZ-9000 (Keyence).

[10] = 100 μM BSO and 500 μM DHMBA, 24 hours, OCR
[11] = co-treatment with 100 μM BSO, DHMBA 250 μM and 500 μM
[12] = 100 μM BSO alone (oxidative stress stimulation)

SMILES: COc1c(O)cc(CO)cc1O [DHMBA, 3,5-dihydroxy-4-methoxybenzyl alcohol]
- expression level of PGC1α [1]: increased
- expression level of TEAM [1]: increased
- DHMBA concentration that increased cell viability ([2]; co-treatment with 100 μM BSO, CCK-8, DHMBA 1 μM to 500 μM): ≥ 3.9 µM
- DHMBA concentration that inhibited cytotoxicity ([3]; co-treatment with 100 μM BSO, DHMBA 1 μM to 500 μM): ≥ 3.9 µM
- cytotoxicity compared with existing antioxidant substances (Keap1-Nrf2 pathway; earlier finding, background art): less cytotoxic than existing antioxidant substances
- activation of radical scavenging ability and the Keap1-Nrf2 pathway, expression induction of antioxidant gene clusters (such as HO-1 and NQO1) (Keap1-Nrf2 pathway; literature (Fuda 2015; Joko 2017)): confirmed
- mitochondrial ATP production [4, 10]: increased
- mitochondrial basal respiration [4, 10]: increased
- mitochondrial maximal respiration [4, 10]: increased
- accumulation of intramitochondrial ROS [5, 11]: inhibited
- production level of intracellular ROS [6, 11]: decreased to the same level as that of the control group
- expression level of BIK gene [7, 11]: decreased to the same levels as those of the control group
- expression level of ENDOG gene [7, 11]: decreased to the same levels as those of the control group
- expression level of FIS1 [8]: reduced
- mitochondrial fragmentation (morphology) [9, 11]: fragmented mitochondria decreased

SMILES: CCCCS(=N)(=O)CCC(N)C(=O)O (centres unmarked) [BSO, buthionine sulfoximine, reference compound]
- cell viability ([2]; 100 μM BSO alone (0 μM DHMBA), CCK-8): low cell viability
- cytotoxicity ([3]; 100 μM BSO alone (0 μM DHMBA)): strong cytotoxicity
- damage to mitochondrial functions (OCR) ([4]; 100 μM BSO alone, 24-hour addition): not recognized
- ROS accumulation in mitochondria ([5]; 100 μM BSO alone): ROS accumulation in mitochondria was also observed
- intracellular ROS ([6]; 100 μM BSO alone): increase in intracellular ROS
- expression level of BIK gene [7, 12]: increased
- expression level of ENDOG gene [7, 12]: increased
- mitochondrial fragmentation (morphology) [9, 12]: mitochondrial fragmentation was induced
